Measured values as given in US20250195212A1, “METHOD FOR GENERATING IN-SITU VASCULAR STENT AND PHOTOCURABLE DRUG-LOADED BALLOON CATHETER FOR IMPLEMENTING THE METHOD” (HANGZHOU MATRIX MEDICAL TECHNOLOGY CO., LTD., priority 2022, published 2025).

Experiments:
[1] = test system: porcine peripheral blood vessels; experiment: Lumen gain and protein cross-linking after angioplasty with riboflavin balloon and photo-activation
Protocol: A porcine peripheral blood vessel was immersed in PBS buffer. Balloons (with a pore size of 50 μm and a surface porosity of 50%) was introduced into the blood vessel. The fluid prepared in Preparation Example 1 was infused to expand the balloons from the compressed state to the inflated state at a pressure of 6 atm. While maintaining the pressure of the balloons, a light source device activated the light-guiding element to emit 450 nm light, with a photocuring duration of 5 minutes.
A porcine peripheral blood vessel was immersed in PBS buffer. Balloons prepared in Preparation Example 6 was pushed into the blood vessel. The compressed balloons were expanded by injecting fluid at a pressure of 6 atm. Then, while maintaining the pressure of the balloons, the light-guiding element emitted light with a wavelength of 450 nm, with a photocuring duration of 5 minutes.
A porcine peripheral blood vessel was immersed in PBS buffer. Balloons prepared in Preparation Example 9 was pushed into the blood vessel. The compressed balloons were expanded by injecting fluid at a pressure of 6 atm. Then, while maintaining the pressure of the balloons, the light-guiding element emitted light with a wavelength of 450 nm, with a photocuring duration of 5 minutes.
A porcine peripheral blood vessel was immersed in PBS buffer. Balloons without riboflavin were pushed into the blood vessel. […]

[2] = Permeability characterization: penetration into blood vessel slices, laser confocal microscope; type: in vitro ADME; details: 1 mg/mL dripped onto inner surface of 2*2 cm blood vessel slice
Protocol: 1 mg/mL of the photosensitive material with blood vessel repair function prepared in Example 1 was dripped onto the inner surface of the blood vessel, and the residual liquid on the inner surface of the blood vessel was wiped dry after a certain period of time, and the penetration depth in the blood vessel was measured using a laser confocal microscope.
Control group: a blood vessel was cut into 2*2 cm slices, with the inner surface facing upward and kept moist with 0.9% (by mass) physiological saline. 1 mg/mL of the third product in Example 1 was dripped onto the inner surface of the blood vessel, and the residual liquid on the inner surface of the blood vessel was wiped dry after a certain period of time, and the penetration depth in the blood vessel was measured using a laser confocal microscope.

| SMILES | protein cross-linking under photo-activation / medial fiber network of treated arteries [1] | The time when the drug is observed in the adventitia of blood vessels [2] |
| --- | --- | --- |
| Cc1cc2nc3c(=O)[nH]c(=O)nc-3n(C[C@H](O)[C@H](O)[C@H](O)CO)c2cc1C [riboflavin] | denser medial fiber network | – |
| N=C(N)NCCCC(N)C(=O)NCCCCC(NC(=O)C(N)CCCNC(=N)N)C(=O)NCCCCC(NC(=O)C(CCCCNC(=O)C(N)CCCNC(=N)N)NC(=O)C(N)CCCNC(=N)N)C(=O)NCCNC(=O)C(CCCCNC(=O)C(CCCCNc1ccc2c3c(cccc13)C(=O)N(CCOCCOCCOCCN1C(=O)c3cccc4c(NCCOCCOCCOCCN)ccc(c34)C1=O)C2=O)Nc1ccc2c3c(cccc13)C(=O)N(CCOCCOCCOCCN1C(=O)c3cccc4c(NCCOCCOCCOCCN)ccc(c34)C1=O)C2=O)NC(=O)C(CCCCNc1ccc2c3c(cccc13)C(=O)N(CCOCCOCCOCCN1C(=O)c3cccc4c(NCCOCCOCCOCCN)ccc(c34)C1=O)C2=O)Nc1ccc2c3c(cccc13)C(=O)N(CCOCCOCCOCCN1C(=O)c3cccc4c(NCCOCCOCCOCCN)ccc(c34)C1=O)C2=O (centres unmarked) [Experimental group] | – | 18 s |
